For orientation: Ki means a dissociation constant, usually derived from enzyme kinetics or from competition with a known ligand. A lower Ki goes with higher affinity. In general, pKi refers to −log10 of the Ki, conventionally taken in molar units.

Assay type in all cases: binding
Assay [1] has as its target T1, noradrenaline reuptake sites (Rattus norvegicus, UniProt Q63380).
T1 construct: The membranes are prepared from the frontal cortex of the rat; from tissue; host or cells: rat frontal cortex membranes
Put plainly: Affinity for noradrenaline reuptake sites in the rat, competition with [3H]-nisoxetine. The conditions noted are these: rat frontal cortex membranes, 2 nM [3H]-nisoxetine, 4 hours at 4° C. The protocol: Determination of the Affinity for Noradrenaline Reuptake Sites in the Rat
The affinity was determined by competition experiments using [^3 H]-nisoxetine. The membranes are prepared from the frontal cortex of the rat and are incubated in triplicate with 2 nM [^3 H]-nisoxetine and the compound being tested in a final volume of 0.5 ml, for 4 hours at 4° C. The incubation buffer contains 50 mM TRIS-HCl (pH 7.4), 120 mM NaCl and 5 mM KCl. The non-specific binding is determined using 10 μM desipramine.
(§1) At the end of the incubation, the incubation medium is filtered through WHATMAN GF/B filters impregnated with 0.1% of polyethylenimine and washed three times with 5 ml of cooled buffer. The radioactivity retained on the filters is determined by liquid scintillation counting. The binding isotherms are analysed by non-linear regression.

The target in the next assay is α2-adrenergic receptors. Put plainly: Affinity for α2-adrenergic receptors in the rat, competition with [3H]-RX 821,002. The conditions noted are these: rat cerebral cortex membranes, 0.4 nM [3H]-RX 821,002, 60 minutes at 22° C. As to the method: Determination of the Affinity for α2 -adrenergic Receptors in the Rat
The affinity was determined by competition experiments with [^3 H]-RX 821,002. The membranes are prepared from the cerebral cortex of the rat and are incubated in triplicate with 0.4 nM [^3 H]-RX 821,002 and the compound being tested in a final volume of 1.0 ml, for 60 minutes at 22° C. The incubation buffer contains […] TRIS-HCl (pH 7.5), 1 mM EDTA and 100 μM GppNHp. The non-specific binding is determined using 10 μM phentolamine.
as §1

Another assay addresses T2, serotonin reuptake sites (Rattus norvegicus, UniProt P31652).
T2 construct: The membranes are prepared from the frontal cortex of the rat; from tissue; host or cells: rat frontal cortex membranes
Put plainly: Affinity for serotonin reuptake sites in the rat, competition with [3H]-paroxetine. The following applies: rat frontal cortex membranes, 0.25 nM [3H]-paroxetine, 2 hours at 25° C. The protocol:
Determination of the Affinity for Serotonin Reuptake Sites in the Rat
The affinity was determined by competition experiments using [^3 H]-paroxetine. The membranes are prepared from the frontal cortex of the rat and are incubated in triplicate with 0.25 nM [^3 H]-paroxetine and the compound being tested in a final volume of 0.4 ml, for 2 hours at 25° C. The incubation buffer contains 50 mM TRIS-HCl (pH 7.4), 120 mM NaCl and 5 mM KCN. The non-specific binding is determined using 10 μM citalopram.
as §1

Structures can show the parent of a compound that is named as a salt.

T2 sequence (P31652 whole entry): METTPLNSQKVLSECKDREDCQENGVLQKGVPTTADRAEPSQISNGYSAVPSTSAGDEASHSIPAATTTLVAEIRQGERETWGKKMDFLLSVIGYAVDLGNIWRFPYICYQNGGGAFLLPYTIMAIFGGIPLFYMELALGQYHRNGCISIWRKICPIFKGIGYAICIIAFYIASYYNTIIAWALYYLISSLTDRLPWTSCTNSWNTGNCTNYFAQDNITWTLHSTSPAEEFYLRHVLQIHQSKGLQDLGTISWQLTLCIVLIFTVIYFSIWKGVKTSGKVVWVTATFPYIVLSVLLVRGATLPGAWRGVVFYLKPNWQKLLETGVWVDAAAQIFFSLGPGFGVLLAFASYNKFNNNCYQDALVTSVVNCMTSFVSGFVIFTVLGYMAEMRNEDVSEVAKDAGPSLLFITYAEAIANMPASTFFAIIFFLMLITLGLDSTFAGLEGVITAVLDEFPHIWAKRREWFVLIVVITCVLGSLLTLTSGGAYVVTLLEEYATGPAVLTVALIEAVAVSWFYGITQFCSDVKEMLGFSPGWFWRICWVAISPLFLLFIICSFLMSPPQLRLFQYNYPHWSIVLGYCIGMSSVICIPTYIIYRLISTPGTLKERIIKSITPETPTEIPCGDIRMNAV
T1 sequence (Q63380 1-617): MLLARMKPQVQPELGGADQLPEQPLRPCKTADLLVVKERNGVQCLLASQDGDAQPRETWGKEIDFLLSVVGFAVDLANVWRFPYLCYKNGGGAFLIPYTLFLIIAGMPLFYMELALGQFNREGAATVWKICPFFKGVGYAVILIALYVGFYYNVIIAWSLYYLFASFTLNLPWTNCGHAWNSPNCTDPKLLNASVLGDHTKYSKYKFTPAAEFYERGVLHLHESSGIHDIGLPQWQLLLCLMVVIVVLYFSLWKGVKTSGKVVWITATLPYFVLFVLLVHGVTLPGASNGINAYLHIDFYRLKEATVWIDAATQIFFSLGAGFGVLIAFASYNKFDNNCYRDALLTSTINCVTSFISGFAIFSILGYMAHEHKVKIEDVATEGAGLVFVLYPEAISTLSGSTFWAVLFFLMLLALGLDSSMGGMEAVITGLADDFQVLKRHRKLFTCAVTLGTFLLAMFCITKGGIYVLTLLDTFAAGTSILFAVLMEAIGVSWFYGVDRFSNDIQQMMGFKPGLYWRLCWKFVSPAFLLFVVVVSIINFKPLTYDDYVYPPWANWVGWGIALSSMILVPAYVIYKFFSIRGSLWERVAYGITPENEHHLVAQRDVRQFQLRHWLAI

In assay [1], `C1=N[C@H](CC2=Cc3ccccc3CC2)CN1` [Example 2, (4R)-4-(3,4-dihydro-2-naphthylmethyl)-4,5-dihydro-1H-imidazole fumarate] had a Ki of 15.8 nM. `C1=NCC(CC2Cc3ccccc3C2)N1` (stereo not drawn) [Example 22, 4-(2,3-Dihydro-1H-inden-2-ylmethyl)-4,5-dihydro-1H-imidazole hemi-fumarate]: the pKi on α2-adrenergic receptors is 8.8.

The compound `COc1cccc2c1C=C(CC1CNC=N1)CC2.O=C(O)/C=C/C(=O)O` (stereo not drawn) [Example 12, 4-[(8-Methoxy-3,4-dihydro-2-naphthyl)methyl]-4,5-dihydro-1H-imidazole fumarate] gave a pKi at serotonin reuptake sites of 7.8.

For the origin of these results see patent US6127396A, “Imidazoline compounds” (Adir et Compagnie, priority 1998, dated 2000).
